Assay results: US20150018301A1, “LRRK-2-Mediated Neuronal Toxicity” (THE JOHNS HOPKINS UNIVERSITY, priority 2009, published 2015)

What was measured:
[1] = tested on: rat primary cortical neuronal cultures transfected with G2019S LRRK2; test: LRRK2-induced neuronal toxicity in primary cortical neuronal cultures (neurite shortening, TUNEL); type: cell-based; details: 0.5 μM
Method: Representative photomicrographs of each experimental group. LRRK2 and eGFP constructs were combined in a molar ratio of 10:1, respectively, and transfected by using of Lipofectamine 2000 (Invitrogen) at DIV (day in vitro) 14 into rat primary cortical neuronal cultures. Compounds (0.5 μM) were administrated at the time of transfection and continued until toxicity assessments. On DIV 16, images were collected on a Zeiss Automatic stage with Axiovision 6.0. (a) Low magnified photomicrographs; (b and c) High magnified photomicrographs. Scale bar=50 μm (a) and 10 μm (b and c);
Primary cortical neuronal cultures were prepared from gestational day 15 fetal rats as previously described. Gonzalez-Zulueta, M., et al. Manganese superoxide dismutase protects nNOS neurons from NMDA and nitric oxide-mediated neurotoxicity. J Neurosci 18, 2040-2055 (1998). All procedures used in this study were approved by the Johns Hopkins Medical Institute Animal Care Committee. Cell viability assays and DNA fragmentation (TUNEL assay) were performed as previously described. Smith, W. W., et al. Kinase activity of mutant LRRK2 mediates neuronal toxicity. Nat Neurosci 9, 1231-1233 (2006); West, A. B., et al. Parkinson's disease-associated mutations in LRRK2 link enhanced GTP-binding and kinase activities to neuronal toxicity. Hum Mol Genet 16, 223-232 (2007). The cortex was dissected, incubated for 15 min in 0.027% trypsin, and then transferred to modified Eagle's medium (MEM)/10% horse serum/10% fetal bovine serum/2 mM glutamine followed by trituration. Dissociated cells were plated at a density of 3-4×10^5 cells per well in polyornithine-coated plates. After 4 days the cells were treated with 10 μg of 5-fluoro-2′-deoxyuridine to prevent proliferation of nonneuronal cells. Cells were maintained in MEM/5% horse serum/2 mM glutamine in 8% CO2 incubator. The medium was changed twice weekly. For assessment of LRRK2-mediated neuronal injury, LRRK2 and eGFP constructs were combined in a molar ratio of 10:1, respectively, and transfected into neurons with Lipofectamine 2000 (Invitrogen) at DIV (day in vitro) 14. On DIV 16, images were collected on a Zeiss Automatic stage with Axiovision 6.0. Viable neurons were defined as having at least one smooth extension (neurite) with twice the length of the cell body. The percentage of eGFP-positive injured neurons in each experimental group relative to those neurons transfected with eGFP was calculated.

G2019S LRRK2 = G2019S LRRK2 (Homo sapiens, UniProt Q5S007, G2019S); test: In vitro kinase assay: LRRK2-mediated phosphorylation of 4E-BP1; type: biochemical
Method: The GST-4E-BP1 expressing vector was generated using the Invitrogen Gateway LR Clonase System. Briefly, an entry clone containing the 4E-BP1 sequence was reacted with the destination vector, pDEST-15 in the presence of the LR clonase mixture. After the clonase reaction, the mixture was transformed into One Shot BL21 chemically competent E. coli. The transformed cells were grown on ampicillin containing LB agar plate for one day at 37° C. Colonies containing GST-4E-BP1 were isolated. For protein induction, 100 μM IPTG was added to 100 mL culture and incubated for 3 h at 30° C. After IPTG incubation, cells were collected by centrifugation at 3,000×g for 15 min. The pellet was lysed with sonication in the presence of lysis butter containing 0.5% TX-100, 50 mM Tris-HCl (pH 8.0), 100 mM NaCl, 0.5 mM EGTA, 5 mM MgCl2, 2 mM DTT, and complete protease inhibitors. The lysate was centrifugated at 15,000×g for 15 min and the supernatant was incubated with GSH-sepharose beads for 2 h at 4° C. After incubation, the beads were washed with PBS containing an additional 150 mM NaCl and 0.1% TX-100 three times. The protein was eluted with elution buffer containing Hepes (pH 8.0), 150 mM NaCl, 30% glycerol, and 30 mM glutathione. The eluted proteins were stored at −80° C.
(§1) The in vitro kinase assay was performed as previously described. West, A. B. et al. Parkinson's disease-associated mutations in leucine-rich repeat kinase 2 augment kinase activity. Proc Natl Acad Sci USA 102, 16842-16847 (2005). Recombinant LRRK2 and MBP or CST-4E-BP1 were combined before the kinase reaction. LRRK2 autophosphorylation is LRRK2 itself phosphorylation and MBP or GST-4E-BP1 phosphorylation is induced by LRRK2. After the kinase reaction, combined LRRK2 and MBP or GST-4E-BP1 were loaded on SDSPAGE and phosphorylated LRRK2 and MBP or GST-4E-BP1 could be detected separately an a single gel. Recombinant proteins and inhibitors were incubated at 30° C. in kinase assay buffer containing 20 mM Hepes (pH 7.4), 5 mM EGTA, and 20 mM β-glycerol phosphate. 0.5 μg MBP (Upstate) or 0.5 μg GST-4B-BP1, 50 μM ATP (Sigma), 20 mM MgCl2, and 1 μCi [γ-32P] ATP (PerkinElmer) was added after 5 min. The reaction was performed at 30° C. to reduce non-specific 32P incorporation for 15 min and terminated by the addition of 5×Laemmili sample buffer. The reactions were then heated at 70° C. for 10 min and resolved by 12% SDS-PAGE. Gels were stained by coomassie brilliant blue after fixation with 10% acetic acid and 40% methanol and then exposed to a Phosphoimager. Data were analyzed by ImageQuant 6.0 software.

LRRK1 WT [2] = target: T1, LRRK1 WT (Homo sapiens, UniProt Q38SD2); test: In vitro kinase assay: LRRK1 autophosphorylation; type: biochemical
LRRK2 G2019S [3] = target: T2, LRRK2 G2019S (Homo sapiens, UniProt Q5S007, G2019S); test: In vitro kinase assay: G2019S LRRK2-mediated MBP phosphorylation; type: biochemical; details: dose-response
Method: (§2) Transfection was performed by using Fugene HD reagent (Roche Applied Science) according to the manufacturer's instruction. For purification of recombinant LRRK1 and LRRK2 proteins, ACTA Purifier (GE Healthcare) FPLC system was used.
(§3) Resulting lysates were rotated at 4° C. for 30 min followed by centrifugation at 20,000×g for 15 min. The supernatants were injected into a GSTrap FF column pre-equilibrated with PBS at 0.5. mL/min flow after filtration using a 0.2 μm syringe filter (Corning). The bound proteins were eluted with buffer containing 10 mM GSH (Sigma), 150 mM NaCl, and 50 mM Tris-HCl (pH 8.0).
as §1, with “West, A. B. et al. Parkinson's disease-associated mutations in leucine-rich repeat kinase 2 augment kinase activity. Proc Natl Acad Sci USA 102, 16842-16847 (2005).” left out, “The reactions were then heated at 70° C. for 10 min and resolved by 12% SDS-PAGE.” left out
(§4) To calculate the IC50 value, a dose-response curve was constructed and non-linear regression analysis using the equation for a sigmoid plot.

LRRK2 G2019S [4] = target: T2, LRRK2 G2019S; test: In vitro kinase assay: G2019S LRRK2 autophosphorylation; type: biochemical; details: dose-response
Method: as §2, §3
as §1, with “West, A. B. et al. Parkinson's disease-associated mutations in leucine-rich repeat kinase 2 augment kinase activity. Proc Natl Acad Sci USA 102, 16842-16847 (2005).” left out, “The reactions were then heated at 70° C. for 10 min and resolved by 12% SDS-PAGE.” left out
as §4

LRRK2 WT [5] = target: T3, LRRK2 WT (Homo sapiens, UniProt Q5S007); test: In vitro kinase assay: LRRK2 autophosphorylation; type: biochemical; details: dose-response
LRRK2 WT [6] = target: T3, LRRK2 WT; test: In vitro kinase assay: LRRK2-mediated MBP phosphorylation; type: biochemical; details: dose-response
[7] = from literature; cited from earlier work
LRRK1 WT [8] = target: T1, LRRK1 WT; test: In vitro kinase assay: LRRK1-mediated MBP phosphorylation; type: biochemical
[9] = tested on: C. elegans expressing LRRK2 G2019S in DA neurons; test: Transgenic nematode model of LRRK2 G2019S-induced DA neurodegeneration; type: in vivo, Caenorhabditis elegans
Method: Nematodes were maintained following the standard procedures. Brenner, S., 771 GENETICS 71-94 (1974). Isogenic worm strains expressing LRRK2, G2019S, UAXX [baInlX; Pdat-1::LRRK2 G2019S, Pdat-1::gfp] were generated via microinjection, integrated into the genome and out-crossed three times. Age-synchronized worms were obtained by treating gravid adults with 2% sodium hypochlorite and 0.5M NaOH to isolate embryos. Lewis, J. A., 48 METHODS CELL BIOL. 3-29 (1995). These embryos were treated with indicated concentrations of LRRK2 kinase inhibitors, which were dissolved in 1% DSMO, for 24 h. at 20° C. with gentle shaking. The worms were then washed and transferred into NGM plates seeded with OP50 bacteria, and incubated as 20° C. The six anterior DA neurons (4 CEP and 2 ADE neurons) of 30 animals/trial were examined for neurodegeneration when the animals were 7 days old. A total of 90 animals for each treatment were analyzed (3 trials of 30 animals/trial). […] See Hamamichi et al., 105(2) PROC. NATL. ACAD. SCI. USA 728-33 (2008); and Cao et al, 25 J. NEUROSCI. 3801-12 (2005). For each trial, 30 worms were transferred into a 2% agarose pad, immobilized with 2 mM levamisole, and analyzed using Nikon Eclipse E800 epifluorescence microscope equipped with Endow GFP HYQ filter cube (Chrom Technology, Rockingham, Vt.). Images were captured with a Cool Snap CCD camera (Photometrics, Tucson, Ariz.) driven by MetaMorph software (Universal Imaging, West Chester, Pa.).
To determine whether the LRRK2 kinase inhibitors protect against LRRK2-induced neurodegeneration in vivo, the LRRK2 kinase inhibitors were tested in the C. elegans model of LRRK2 G2019S-induced neurodegeneration described above. The DA transporter (dat-1) was used to direct expression of LRRK2 G2019S in DA neurons.

T1 sequence (Q38SD2 whole entry): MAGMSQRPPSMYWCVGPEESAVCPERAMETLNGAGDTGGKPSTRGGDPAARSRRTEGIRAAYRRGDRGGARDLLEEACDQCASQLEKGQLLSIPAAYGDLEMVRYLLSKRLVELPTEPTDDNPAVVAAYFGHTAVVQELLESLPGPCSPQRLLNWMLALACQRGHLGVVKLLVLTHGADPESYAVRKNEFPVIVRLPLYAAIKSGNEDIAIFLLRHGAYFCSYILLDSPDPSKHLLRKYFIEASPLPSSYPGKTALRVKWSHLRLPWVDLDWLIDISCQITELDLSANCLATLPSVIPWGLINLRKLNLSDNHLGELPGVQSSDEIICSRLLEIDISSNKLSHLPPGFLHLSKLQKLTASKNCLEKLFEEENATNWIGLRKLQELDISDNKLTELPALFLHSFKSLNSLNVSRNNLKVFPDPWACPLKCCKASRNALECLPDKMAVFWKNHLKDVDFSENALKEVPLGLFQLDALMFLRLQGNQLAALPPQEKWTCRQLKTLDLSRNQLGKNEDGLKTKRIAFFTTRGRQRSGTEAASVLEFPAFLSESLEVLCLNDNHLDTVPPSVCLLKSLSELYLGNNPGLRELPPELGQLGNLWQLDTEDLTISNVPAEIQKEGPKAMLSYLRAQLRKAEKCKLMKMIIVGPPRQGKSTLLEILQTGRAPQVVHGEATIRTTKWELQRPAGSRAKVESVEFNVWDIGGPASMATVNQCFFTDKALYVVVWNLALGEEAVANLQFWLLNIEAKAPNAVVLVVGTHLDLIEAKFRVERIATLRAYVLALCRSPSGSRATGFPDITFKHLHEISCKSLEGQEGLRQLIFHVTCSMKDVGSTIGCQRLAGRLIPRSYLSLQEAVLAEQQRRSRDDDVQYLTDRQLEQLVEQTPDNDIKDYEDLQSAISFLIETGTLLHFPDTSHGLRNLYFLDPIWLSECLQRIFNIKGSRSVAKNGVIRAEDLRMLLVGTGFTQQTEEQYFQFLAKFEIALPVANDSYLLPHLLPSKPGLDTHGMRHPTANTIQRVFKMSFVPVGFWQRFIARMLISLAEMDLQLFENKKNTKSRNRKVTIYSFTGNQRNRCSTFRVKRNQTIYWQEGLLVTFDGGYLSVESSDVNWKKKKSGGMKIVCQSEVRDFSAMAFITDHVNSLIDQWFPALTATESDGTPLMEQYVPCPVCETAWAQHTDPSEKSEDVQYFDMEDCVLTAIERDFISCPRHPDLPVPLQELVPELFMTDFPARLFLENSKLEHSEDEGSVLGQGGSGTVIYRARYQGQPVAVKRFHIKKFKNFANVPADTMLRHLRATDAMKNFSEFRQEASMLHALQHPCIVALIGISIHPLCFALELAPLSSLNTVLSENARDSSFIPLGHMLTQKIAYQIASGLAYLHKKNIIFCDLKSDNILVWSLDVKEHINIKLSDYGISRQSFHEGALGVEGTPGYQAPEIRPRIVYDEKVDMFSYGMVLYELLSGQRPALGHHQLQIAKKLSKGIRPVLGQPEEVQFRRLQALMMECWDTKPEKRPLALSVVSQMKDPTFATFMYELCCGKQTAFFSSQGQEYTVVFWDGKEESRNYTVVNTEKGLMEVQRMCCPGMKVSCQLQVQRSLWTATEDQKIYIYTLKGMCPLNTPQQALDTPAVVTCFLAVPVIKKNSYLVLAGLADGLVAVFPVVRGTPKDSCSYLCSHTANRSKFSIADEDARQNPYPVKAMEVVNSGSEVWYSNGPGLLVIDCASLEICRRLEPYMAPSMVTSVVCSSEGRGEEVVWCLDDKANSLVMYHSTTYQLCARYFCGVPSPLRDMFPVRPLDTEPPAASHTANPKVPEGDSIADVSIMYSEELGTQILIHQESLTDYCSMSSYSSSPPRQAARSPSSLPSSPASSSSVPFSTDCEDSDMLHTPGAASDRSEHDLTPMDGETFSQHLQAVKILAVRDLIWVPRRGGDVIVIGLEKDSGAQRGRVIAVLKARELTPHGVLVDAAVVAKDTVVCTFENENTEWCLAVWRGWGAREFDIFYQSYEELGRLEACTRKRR
T3 sequence (Q5S007 whole entry): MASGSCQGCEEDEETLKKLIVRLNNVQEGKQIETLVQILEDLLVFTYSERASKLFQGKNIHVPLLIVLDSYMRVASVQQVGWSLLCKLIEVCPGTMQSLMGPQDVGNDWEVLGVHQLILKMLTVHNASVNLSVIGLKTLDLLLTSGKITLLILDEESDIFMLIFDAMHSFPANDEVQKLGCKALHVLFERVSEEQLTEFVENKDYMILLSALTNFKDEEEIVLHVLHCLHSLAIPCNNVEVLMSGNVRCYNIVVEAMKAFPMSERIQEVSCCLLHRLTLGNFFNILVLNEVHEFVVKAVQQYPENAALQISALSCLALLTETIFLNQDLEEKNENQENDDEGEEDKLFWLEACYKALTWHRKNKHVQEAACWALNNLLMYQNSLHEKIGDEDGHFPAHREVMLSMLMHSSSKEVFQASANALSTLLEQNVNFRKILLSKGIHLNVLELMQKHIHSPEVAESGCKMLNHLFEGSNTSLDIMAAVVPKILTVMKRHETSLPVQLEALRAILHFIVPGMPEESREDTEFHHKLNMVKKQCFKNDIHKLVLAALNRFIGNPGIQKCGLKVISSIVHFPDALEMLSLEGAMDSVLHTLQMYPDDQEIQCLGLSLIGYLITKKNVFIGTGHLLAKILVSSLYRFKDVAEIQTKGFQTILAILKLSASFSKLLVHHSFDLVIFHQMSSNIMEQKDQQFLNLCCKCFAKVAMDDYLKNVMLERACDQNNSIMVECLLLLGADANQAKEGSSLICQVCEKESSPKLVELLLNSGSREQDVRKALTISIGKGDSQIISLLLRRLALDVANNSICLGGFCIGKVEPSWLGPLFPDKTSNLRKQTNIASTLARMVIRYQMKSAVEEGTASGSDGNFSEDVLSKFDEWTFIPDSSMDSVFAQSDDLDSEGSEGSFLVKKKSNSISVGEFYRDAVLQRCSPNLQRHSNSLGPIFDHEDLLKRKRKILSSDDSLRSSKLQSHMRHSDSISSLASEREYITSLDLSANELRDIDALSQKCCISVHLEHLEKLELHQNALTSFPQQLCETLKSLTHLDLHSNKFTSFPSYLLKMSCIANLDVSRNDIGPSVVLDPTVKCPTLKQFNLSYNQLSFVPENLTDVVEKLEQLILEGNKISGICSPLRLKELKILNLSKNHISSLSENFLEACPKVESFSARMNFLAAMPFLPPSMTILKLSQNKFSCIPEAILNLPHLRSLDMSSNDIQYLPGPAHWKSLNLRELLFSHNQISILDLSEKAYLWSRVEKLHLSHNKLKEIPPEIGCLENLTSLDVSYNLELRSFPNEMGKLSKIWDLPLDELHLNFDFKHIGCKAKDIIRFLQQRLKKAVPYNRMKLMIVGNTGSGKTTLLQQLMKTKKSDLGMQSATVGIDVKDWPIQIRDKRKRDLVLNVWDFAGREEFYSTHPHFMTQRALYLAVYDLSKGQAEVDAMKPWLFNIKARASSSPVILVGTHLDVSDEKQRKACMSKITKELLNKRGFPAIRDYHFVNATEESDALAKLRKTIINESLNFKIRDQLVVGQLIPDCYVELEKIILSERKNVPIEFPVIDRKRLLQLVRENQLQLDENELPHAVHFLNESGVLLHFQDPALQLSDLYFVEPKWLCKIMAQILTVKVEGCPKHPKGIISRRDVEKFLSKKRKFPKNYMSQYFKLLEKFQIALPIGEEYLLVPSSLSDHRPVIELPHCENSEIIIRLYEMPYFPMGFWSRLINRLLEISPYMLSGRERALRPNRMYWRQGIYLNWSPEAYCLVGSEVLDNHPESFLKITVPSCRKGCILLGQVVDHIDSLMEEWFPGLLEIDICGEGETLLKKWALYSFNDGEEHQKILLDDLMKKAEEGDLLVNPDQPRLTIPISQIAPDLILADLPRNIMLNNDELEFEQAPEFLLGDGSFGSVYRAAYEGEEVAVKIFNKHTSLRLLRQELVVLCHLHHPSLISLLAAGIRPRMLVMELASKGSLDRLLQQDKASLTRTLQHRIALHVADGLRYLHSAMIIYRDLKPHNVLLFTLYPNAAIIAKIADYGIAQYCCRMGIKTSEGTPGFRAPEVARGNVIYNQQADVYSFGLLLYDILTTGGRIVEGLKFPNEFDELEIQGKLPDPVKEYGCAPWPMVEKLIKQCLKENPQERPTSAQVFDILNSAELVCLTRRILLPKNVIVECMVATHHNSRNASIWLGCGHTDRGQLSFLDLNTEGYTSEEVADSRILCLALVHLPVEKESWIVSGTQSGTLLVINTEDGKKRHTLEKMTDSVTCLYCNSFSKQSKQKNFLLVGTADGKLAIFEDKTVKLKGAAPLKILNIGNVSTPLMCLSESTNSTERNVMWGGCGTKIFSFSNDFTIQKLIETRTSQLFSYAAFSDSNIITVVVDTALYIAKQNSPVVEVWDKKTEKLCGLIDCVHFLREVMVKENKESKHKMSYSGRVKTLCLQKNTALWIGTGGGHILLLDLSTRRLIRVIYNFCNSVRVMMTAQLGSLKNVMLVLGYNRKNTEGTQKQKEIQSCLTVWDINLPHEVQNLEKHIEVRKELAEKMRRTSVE
T2 sequence (Q5S007 whole entry G2019S): as the sequence (Q5S007 whole entry) above, with G2019S counted along it
Chain of G2019S LRRK2 (Q5S007 whole entry G2019S): as the sequence (Q5S007 whole entry) above, with G2019S counted along it

| Compound | G2019S LRRK2 toxicity [1] | LRRK2-mediated phosphorylation of 4E-BP1 (G2019S LRRK2) | effect on LRRK1 autophosphorylation (LRRK1 WT [2]) | effect on G2019S LRRK2 MBP phosphorylation (LRRK2 G2019S [3]) | effect on G2019S LRRK2 autophosphorylation (LRRK2 G2019S [4]) | effect on WT LRRK2 autophosphorylation (LRRK2 WT [5]) | effect on WT LRRK2 MBP phosphorylation (LRRK2 WT [6]) | crossing of the blood-brain barrier [7] | effect on LRRK1 MBP phosphorylation (LRRK1 WT [8]) | IC50 (LRRK1 WT [8]; Table 3, mean of three experiments) | worms with wild-type DA neurons (4 CEP and 2 ADE) ([9]; 25 μM, 7-day-old worms, n=90, 48% with 1% DMSO) | rescue of DA neurodegeneration ([9]; 7 day-old worms) |
| --- | --- | --- | --- | --- | --- | --- | --- | --- | --- | --- | --- | --- |
| O=C1Nc2ccccc2/C1=C1/Nc2ccccc2C1=O [Inhibitor 69, Indirubin] | failed to inhibit | did not inhibit | no effect | no effect | no effect | no effect | no effect | known to cross the blood-brain barrier | no effect | – | – | – |
| CNC(=O)c1cc(Oc2ccc(NC(=O)Nc3ccc(Cl)c(C(F)(F)F)c3)cc2)ccn1 [Sorafenib] | completely protected | – | minimal to no effect | – | – | – | – | – | minimal to no effect | 13.8 µM | 62% | protect worms from neurodegeneration |
